Our source for the GI50 and TGI values is PubChem BioAssay (NCI).

Test systems include SF-295 CNS; TK-10 renal; COLO 205 colon; NCI/ADR-RES ovarian; MDA-MB-435; A549 NSCLC; MDA-MB-231 breast; NCI-H522 lung; EKVX NSCLC; MALME-3M melanoma.
Assay in all cases: inhibition of tumour cell growth, NCI panel, 48 h

Each structure is given as a SMILES string.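 A five-concentration, 48-hour dose response in 96-well plates underlies each endpoint, interpolated linearly between surrounding concentrations. At the GI50, growth is halved. TGI: concentration producing complete growth inhibition.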

In the case of `Cn1c(O)c(N=NC(N)=S)c2ccccc21`, the GI50 with SF-295 CNS was 27.1 µM; in the assay on TK-10 renal it was more than 100 µM; in the assay on COLO 205 colon, 94.9 µM; with NCI/ADR-RES ovarian, 47.4 µM; with MDA-MB-435, more than 100 µM; in the assay with A549 NSCLC, 62.6 µM. The GI50 was more than 100 µM with MDA-MB-231 breast, 43.9 µM in the assay with NCI-H522 lung and 2.04 µM in the assay on EKVX NSCLC. The TGI in the assay on SF-295 CNS, in the assay on TK-10 renal, in the assay on COLO 205 colon, in the assay with NCI/ADR-RES ovarian, in the assay with MDA-MB-435 and in the assay on A549 NSCLC was more than 100 µM each time. Moreover, the TGI with MDA-MB-231 breast, in the assay on NCI-H522 lung and in the assay on EKVX NSCLC was more than 100 µM throughout.

For the compound `CC(=O)NS(=O)(=O)c1ccc(-n2nc(-c3ccccc3)cc2C2=CC(=O)C=CC2=O)cc1`, the GI50 with SF-295 CNS was more than 100 µM; with TK-10 renal, 75.4 µM; in the assay on COLO 205 colon, more than 100 µM; in the assay with MDA-MB-435 it was more than 100 µM; in the assay on A549 NSCLC it was more than 100 µM; in the assay on MDA-MB-231 breast, more than 100 µM. In addition, the GI50 in the assay with NCI-H522 lung and in the assay on EKVX NSCLC was more than 100 µM each time. In addition, the TGI in the assay with SF-295 CNS, in the assay on TK-10 renal, in the assay with COLO 205 colon, with MDA-MB-435, in the assay on A549 NSCLC and with MDA-MB-231 breast was more than 100 µM throughout. Further, the TGI with NCI-H522 lung and in the assay with EKVX NSCLC was more than 100 µM throughout.

Consider `CCC1OC(/C(C)=C/C(C)/C=C/C2C(C)C2/C=C/C2OC(CC(=O)O)CC(O)C2O)CC=C1C` (stereo not given), for which the GI50 in the assay with SF-295 CNS is more than 50 µM; in the assay on TK-10 renal it was 9.6 µM; in the assay with MALME-3M melanoma, 1.99 µM; in the assay with COLO 205 colon, more than 50 µM; in the assay on NCI/ADR-RES ovarian it was 14.4 µM; in the assay on MDA-MB-435 it was more than 50 µM. In addition, the GI50 in the assay with A549 NSCLC, in the assay with NCI-H522 lung and with EKVX NSCLC was more than 50 µM in each case. Besides, the TGI in the assay on SF-295 CNS, in the assay on TK-10 renal, with MALME-3M melanoma, in the assay on COLO 205 colon, with NCI/ADR-RES ovarian and in the assay on MDA-MB-435 was more than 50 µM in each case. The TGI with A549 NSCLC, in the assay with NCI-H522 lung and with EKVX NSCLC was more than 50 µM throughout.

For `COc1cc(/C=C\c2cc(OC)c(OC)c(OC)c2)cc(NS(=O)(=O)c2cccc(Cl)c2)c1OC`, the GI50 was 0.0453 µM in the assay with SF-295 CNS; 2.01 µM with TK-10 renal; 20 µM with MALME-3M melanoma; 0.261 µM with COLO 205 colon; 0.264 µM with A549 NSCLC; 0.259 µM with MDA-MB-231 breast. Moreover, the GI50 with NCI-H522 lung is 0.0373 µM; in the assay on EKVX NSCLC, 0.264 µM. The TGI with SF-295 CNS was more than 100 µM; with TK-10 renal, more than 100 µM; with MALME-3M melanoma it was more than 100 µM; in the assay on COLO 205 colon, 0.851 µM; in the assay with A549 NSCLC, more than 100 µM; in the assay on MDA-MB-231 breast, more than 100 µM. Further, the TGI in the assay with NCI-H522 lung was 88.2 µM; with EKVX NSCLC it was more than 100 µM.

On to `COc1cc(CNC(=O)CCSc2nc3ccccc3c(=O)n2Cc2cc(OC)c(OC)c(OC)c2)cc(OC)c1OC`, for which the GI50 was 4.36 µM in the assay with SF-295 CNS; 11 µM in the assay on TK-10 renal; 5.32 µM with COLO 205 colon; 3.59 µM in the assay with NCI/ADR-RES ovarian; 6.33 µM in the assay with A549 NSCLC; 5.36 µM with MDA-MB-231 breast. Besides, the GI50 in the assay on NCI-H522 lung is 6.55 µM. The TGI was more than 100 µM with SF-295 CNS; 44.4 µM with TK-10 renal; 23.2 µM in the assay with COLO 205 colon; 30.9 µM with NCI/ADR-RES ovarian; more than 100 µM in the assay with A549 NSCLC; 48.3 µM with MDA-MB-231 breast. The compound further displayed a TGI in the assay with NCI-H522 lung of 27.5 µM.

Regarding `Cc1cccc(O)c(=O)c1`, the TGI with SF-295 CNS was more than 100 µM; in the assay with TK-10 renal, more than 100 µM; with MALME-3M melanoma, more than 100 µM; with COLO 205 colon, 37.8 µM; in the assay with A549 NSCLC, more than 100 µM; in the assay on NCI-H522 lung, more than 100 µM. The TGI in the assay on EKVX NSCLC is 98.9 µM.

In the case of `O=C1OC(c2ccccc2)=N/C1=C/N1CCCC1C(=O)O` (stereo not given), the TGI with SF-295 CNS, in the assay with TK-10 renal, with MALME-3M melanoma, in the assay with COLO 205 colon, in the assay with A549 NSCLC and with NCI-H522 lung was more than 100 µM in each case. The compound further yielded a TGI in the assay on EKVX NSCLC of more than 100 µM.

With `c1ccc(COc2cccc3cccnc23)cc1`, the TGI in the assay on SF-295 CNS, with TK-10 renal, in the assay with MALME-3M melanoma, with COLO 205 colon, in the assay on A549 NSCLC and in the assay on NCI-H522 lung was more than 100 µM in each case. Further, the TGI in the assay on EKVX NSCLC is more than 100 µM.

As to `COc1ccc(N2C(=O)C(N3C(=O)C=CC3=O)C2C=O)cc1` (stereo not given), the TGI in the assay with SF-295 CNS, with TK-10 renal, in the assay on MALME-3M melanoma, with COLO 205 colon, in the assay on A549 NSCLC and with NCI-H522 lung was more than 100 µM each time. For the same compound, the TGI in the assay on EKVX NSCLC is more than 100 µM.
